From US6727237B2, “Inhibitors of bacterial NAD synthetase” (priority 1998, dated 2004)

Assays:
[1] = biological target: T1, bacterial NAD synthetase enzyme (Bacillus subtilis, UniProt P08164); test: biochemical; type: biochemical
T1 sequence (P08164 2-272 limits assumed): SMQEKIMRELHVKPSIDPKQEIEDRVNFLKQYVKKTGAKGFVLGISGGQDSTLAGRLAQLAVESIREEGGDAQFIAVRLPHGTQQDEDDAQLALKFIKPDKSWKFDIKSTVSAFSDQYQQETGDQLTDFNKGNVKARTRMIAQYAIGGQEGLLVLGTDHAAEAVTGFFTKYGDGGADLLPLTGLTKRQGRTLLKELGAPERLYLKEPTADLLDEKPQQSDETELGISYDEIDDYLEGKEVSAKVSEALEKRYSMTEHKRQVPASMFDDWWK

[2] = system: Staphylococcus epidermitis; test: Bacterial growth inhibition screen in LB media (absorbance 595 nm), percent inhibition; details: S. epidermitis
[3] = compound at 0.2 mM (Table 312A)

## c1ccc2[nH]c(CCCCCCC[n+]3cccc4ccccc43)cc2c1 [Compound 394]
[1]; [3]
  % Inhibition: 4.62%
[2]; concentration screened 10 uM
  % Inhibition: 7.03%

## c1ccc(-c2ccc3[nH]c(CCCCCC[n+]4ccc5ccccc5c4)cc3c2)cc1 [Compound 543]
[1]; [3]
  % Inhibition: 28.06%
[2]; concentration screened 10 uM
  % Inhibition: 5.99%

## FC(F)(F)c1ccc2cc(CCCC[n+]3cccc4ccccc43)[nH]c2c1 [Compound 397]
[1]; compound at 0.1 mM (Table 314)
  % Inhibition: 4.51%
[2]; concentration screened 10 uM
  % Inhibition: 5.85%

## Fc1ccc2[nH]c(CCCC[n+]3cccc4ccccc43)cc2c1 [Compound 451]
[1]; compound at 0.1 mM (Table 314)
  % Inhibition: 2.94%
[2]; concentration screened 10 uM
  % Inhibition: 5.57%

## CC(=O)c1ccc2[nH]c(CCCCC[n+]3cccc4ccccc43)cc2c1 [Compound 476]
[1]; [3]
  % Inhibition: 17.49%
[2]; concentration screened 10 uM
  % Inhibition: 11.14%

## Fc1cc(F)c2[nH]c(CCCCCC[n+]3ccccc3)cc2c1 [Compound 303]
[1]; [3]
  % Inhibition: 50.56%
[2]; concentration screened 100 uM
  % Inhibition: 100.00%

## O=[N+]([O-])c1ccc2[nH]c(CCCCCCCC[n+]3cccc4ccccc43)cc2c1 [Compound 443]
[1]; [3]
  % Inhibition: 5.51%
[2]; concentration screened 10 uM
  % Inhibition: 7.66%

## CC(C)c1ccc2[nH]c(CCC[n+]3ccccc3)cc2c1 [Compound 318]
[1]; [3]
  % Inhibition: 14.94%
[2]; concentration screened 10 uM
  % Inhibition: 2.99%

## CC(C)c1ccc2[nH]c(CCCCCC[n+]3cccc4ccccc43)cc2c1 [Compound 429]
[1]; [3]
  % Inhibition: 13.01%
[2]; concentration screened 10 uM
  % Inhibition: 3.06%

## Fc1cc(F)c2[nH]c(CCC[n+]3cccc4ccccc43)cc2c1 [Compound 408]
[1]; [3]
  % Inhibition: 7.04%
[2]; concentration screened 10 uM
  % Inhibition: 1.88%

## CCCCc1ccc2[nH]c(CCCCCC[n+]3cccc4ccccc43)cc2c1 [Compound 423]
[1]; [3]
  % Inhibition: 12.09%
[2]; concentration screened 10 uM
  % Inhibition: 16.85%

## c1ccc(-c2ccc3[nH]c(CCCCC[n+]4ccccc4)cc3c2)cc1 [Compound 326]
[1]; compound at 0.1 mM (Table 314)
  % Inhibition: 16.11%
[2]; concentration screened 10 uM
  % Inhibition: 6.27%

## c1ccc(C(c2ccccc2)(c2ccccc2)c2ccc3[nH]c(CCCCCCCC[n+]4cccc5ccccc54)cc3c2)cc1 [Compound 449]
[1]; [3]
  % Inhibition: 8.67%
[2]; concentration screened 10 uM
  % Inhibition: 7.73%

## FC(F)(F)c1ccc2[nH]c(CCCCCC[n+]3ccc4ccccc4c3)cc2c1 [Compound 579]
[1]; [3]
  % Inhibition: 12.57%
[2]; concentration screened 10 uM
  % Inhibition: 5.57%

## c1ccc(-c2ccc3[nH]c(CCCCCCCC[n+]4cccc5ccccc54)cc3c2)cc1 [Compound 437]
[1]; [3]
  % Inhibition: 6.91%
[2]; concentration screened 10 uM
  % Inhibition: 11.84%

## c1ccc(-c2ccc3[nH]c(CCCCCCCC[n+]4ccc5ccccc5c4)cc3c2)cc1 [Compound 545]
[1]; [3]
  % Inhibition: 32.18%
[2]; concentration screened 10 uM
  % Inhibition: 15.39%

## COC(=O)c1ccc2c(ccn2CCCCCCCCC[n+]2ccccc2)c1 [Compound 166]
[1]; [3]
  % Inhibition: 87.68%
[2]; concentration screened 10 uM
  % Inhibition: 21.66%

## CC(=O)c1ccc2[nH]c(CCCCOC(=O)c3ccc(N(C)C)cc3)cc2c1 [Compound 636]
[1]; [3]
  % Inhibition: 17.36%
[2]; concentration screened 100 uM
  % Inhibition: 6.72%

## COc1ccc2c(ccn2CCCCOC(=O)Cc2ccc([N+](C)(C)C)cc2)c1 [Compound 740]
[1]; [3]
  % Inhibition: 7.23%
[2]; concentration screened 10 uM
  % Inhibition: 5.17%

## Fc1cc(F)c2[nH]c(CCCCCC[n+]3cccc4ccccc43)cc2c1 [Compound 411]
[1]; [3]
  % Inhibition: 8.84%
[2]; concentration screened 10 uM
  % Inhibition: 15.74%

## FC(F)(F)c1ccc2[nH]c(CCCCC[n+]3ccc4ccccc4c3)cc2c1 [Compound 578]
[1]; [3]
  % Inhibition: 30.96%
[2]; concentration screened 100 uM
  % Inhibition: 97.79%

## c1ccc(Oc2ccc3[nH]c(CCCC[n+]4cccc5ccccc54)cc3c2)cc1 [Compound 457]
[1]; [3]
  % Inhibition: 3.31%
[2]; concentration screened 10 uM
  % Inhibition: 4.67%

## Fc1ccc2[nH]c(CCCCC[n+]3ccc4ccccc4c3)cc2c1 [Compound 560]
[1]; [3]
  % Inhibition: 46.91%
[2]; concentration screened 100 uM
  % Inhibition: 98.43%

## c1ccc(Oc2ccc3[nH]c(CCCCCCC[n+]4ccc5ccccc5c4)cc3c2)cc1 [Compound 568]
[1]; [3]
  % Inhibition: 18.95%
[2]; concentration screened 10 uM
  % Inhibition: 3.10%

## CC(C)c1ccc2[nH]c(CCCCCC[n+]3ccc4ccccc4c3)cc2c1 [Compound 537]
[1]; [3]
  % Inhibition: 10.69%
[2]; concentration screened 10 uM
  % Inhibition: 5.43%

## O=[N+]([O-])c1ccc2[nH]c(CCCCCC[n+]3ccc4ccccc4c3)cc2c1 [Compound 549]
[1]; [3]
  % Inhibition: 14.08%
[2]; concentration screened 10 uM
  % Inhibition: 3.13%

## c1cc[n+](CCCCCCc2cc3ccccc3[nH]2)cc1 [Compound 285]
[1]; [3]
  % Inhibition: 32.45%
[2]; concentration screened 100 uM
  % Inhibition: 98.57%

## COC(=O)c1ccc[n+](CCCCn2ccc3cc([N+](=O)[O-])ccc32)c1 [Compound 9]
[1]; [3]
  % Inhibition: 28.02%
[2]; concentration screened 10 uM
  % Inhibition: 31.80%

## COC(=O)c1ccc2[nH]c(CCCCC[n+]3ccc4ccccc4c3)cc2c1 [Compound 596]
[1]; [3]
  % Inhibition: 56.49%
[2]; concentration screened 100 uM
  % Inhibition: 96.36%

## FC(F)(F)c1ccc2[nH]c(CCCCCCC[n+]3ccccc3)cc2c1 [Compound 364]
[1]; [3]
  % Inhibition: 29.20%
[2]; concentration screened 10 uM
  % Inhibition: 2.16%

## Cc1ccc2[nH]c(CCCCCCC[n+]3cccc4ccccc43)cc2c1 [Compound 406]
[1]; [3]
  % Inhibition: 10.96%
[2]; concentration screened 10 uM
  % Inhibition: 6.41%

## O=[N+]([O-])c1cc([N+](=O)[O-])c2[nH]c(CCC[n+]3ccccc3)cc2c1 [Compound 306]
[1]; [3]
  % Inhibition: 33.93%
[2]; concentration screened 10 uM
  % Inhibition: 4.32%

## O=C(c1ccccc1)c1ccc2[nH]c(CCCCCCCC[n+]3ccccc3)cc2c1 [Compound 359]
[1]; [3]
  % Inhibition: 35.55%
[2]; concentration screened 100 uM
  % Inhibition: 1.01%

## c1ccc(C(c2ccccc2)(c2ccccc2)c2ccc3[nH]c(CCCCC[n+]4ccccc4)cc3c2)cc1 [Compound 338]
[1]; compound at 0.1 mM (Table 314)
  % Inhibition: 27.28%
[2]; concentration screened 10 uM
  % Inhibition: 1.67%

## CC(=O)c1ccc2[nH]c(CCCCCCCC[n+]3ccc4ccccc4c3)cc2c1 [Compound 587]
[1]; [3]
  % Inhibition: 56.47%
[2]; concentration screened 100 uM
  % Inhibition: 100.00%

## O=C(c1ccccc1)c1ccc2[nH]c(CCCCC[n+]3cccc4ccccc43)cc2c1 [Compound 464]
[1]; [3]
  % Inhibition: 13.50%
[2]; concentration screened 10 uM
  % Inhibition: 35.45%

## CC(C)c1ccc2[nH]c(CCCCOC(=O)c3ccc(N(C)C)cc3)cc2c1 [Compound 627]
[1]; [3]
  % Inhibition: 11.19%
[2]; concentration screened 100 uM
  % Inhibition: 20.10%

## c1ccc(Oc2ccc3[nH]c(CCCCC[n+]4ccc5ccccc5c4)cc3c2)cc1 [Compound 566]
[1]; [3]
  % Inhibition: 29.72%
[2]; concentration screened 100 uM
  % Inhibition: 98.21%

## FC(F)(F)c1ccc2cc(CCCCC[n+]3ccc4ccccc4c3)[nH]c2c1 [Compound 506]
[1]; [3]
  % Inhibition: 21.74%
[2]; concentration screened 100 uM
  % Inhibition: 98.64%

## CC(=O)c1ccc2[nH]c(CCCCCC[n+]3ccc4ccccc4c3)cc2c1 [Compound 585]
[1]; [3]
  % Inhibition: 17.43%
[2]; concentration screened 10 uM
  % Inhibition: 2.09%

## c1ccc(-c2ccc3[nH]c(CCC[n+]4ccc5ccccc5c4)cc3c2)cc1 [Compound 540]
[1]; [3]
  % Inhibition: 20.20%
[2]; concentration screened 10 uM
  % Inhibition: 1.60%

## COc1ccc2[nH]c(CCCC[n+]3ccc4ccccc4c3)cc2c1 [Compound 589]
[1]; compound at 0.1 mM (Table 314)
  % Inhibition: 24.98%
[2]; concentration screened 10 uM
  % Inhibition: 29.35%

## FC(F)(F)c1ccc2cc(CCCCCC[n+]3ccc4ccccc4c3)[nH]c2c1 [Compound 507]
[1]; [3]
  % Inhibition: 26.18%
[2]; concentration screened 100 uM
  % Inhibition: 15.86%

## Fc1ccc2[nH]c(CCC[n+]3cccc4ccccc43)cc2c1 [Compound 450]
[1]; [3]
  % Inhibition: 7.90%
[2]; concentration screened 10 uM
  % Inhibition: 7.45%

## FC(F)(F)c1ccc2[nH]c(CCCC[n+]3ccccc3)cc2c1 [Compound 361]
[1]; compound at 0.1 mM (Table 314)
  % Inhibition: 16.08%
[2]; concentration screened 10 uM
  % Inhibition: 5.57%

## c1ccc(Oc2ccc3[nH]c(CCCCCC[n+]4ccccc4)cc3c2)cc1 [Compound 351]
[1]; [3]
  % Inhibition: 65.08%
[2]; concentration screened 100 uM
  % Inhibition: 99.57%

## CC(C)c1ccc2[nH]c(CCCCCCCC[n+]3cccc4ccccc43)cc2c1 [Compound 431]
[1]; [3]
  % Inhibition: 10.77%
[2]; concentration screened 10 uM
  % Inhibition: 22.28%

## COC(=O)c1ccc2[nH]c(CCCCC[n+]3cccc4ccccc43)cc2c1 [Compound 488]
[1]; [3]
  % Inhibition: 17.65%
[2]; concentration screened 10 uM
  % Inhibition: 2.72%

## CC(=O)c1ccc2[nH]c(CCCCC[n+]3ccc4ccccc4c3)cc2c1 [Compound 584]
[1]; [3]
  % Inhibition: 68.79%
[2]; concentration screened 100 uM
  % Inhibition: 96.07%

## O=[N+]([O-])c1ccc2[nH]c(CCC[n+]3cccc4ccccc43)cc2c1 [Compound 438]
[1]; [3]
  % Inhibition: 9.45%
[2]; concentration screened 10 uM
  % Inhibition: 5.29%

## CC(=O)c1ccc2[nH]c(CCCCOC(=O)c3cccnc3)cc2c1 [Compound 672]
[1]; [3]
  % Inhibition: 2.63%
[2]; concentration screened 10 uM
  % Inhibition: 1.57%

## O=C(O)c1ccc2[nH]c(CCCCCC[n+]3ccccc3)cc2c1 [Compound 387]
[1]; compound at 0.1 mM (Table 314)
  % Inhibition: 29.97%
[2]; concentration screened 100 uM
  % Inhibition: 97.64%

## COc1ccc2[nH]c(CCCCCCCC[n+]3ccc4ccccc4c3)cc2c1 [Compound 593]
[1]; [3]
  % Inhibition: 60.19%
[2]; concentration screened 100 uM
  % Inhibition: 100.00%

## FC(F)(F)c1ccc2cc(CCC[n+]3cccc4ccccc43)[nH]c2c1 [Compound 396]
[1]; compound at 0.1 mM (Table 314)
  % Inhibition: 3.64%
[2]; concentration screened 10 uM
  % Inhibition: 1.53%

## CC(=O)c1ccc2[nH]c(CCCCCC[n+]3cccc4ccccc43)cc2c1 [Compound 477]
[1]; [3]
  % Inhibition: 10.15%
[2]; concentration screened 10 uM
  % Inhibition: 3.69%

## c1ccc(C(c2ccccc2)(c2ccccc2)c2ccc3[nH]c(CCCCCC[n+]4ccccc4)cc3c2)cc1 [Compound 339]
[1]; [3]
  % Inhibition: 42.87%
[2]; concentration screened 100 uM
  % Inhibition: 100.00%

## Cc1ccc2[nH]c(CCCC[n+]3cccc4ccccc43)cc2c1 [Compound 403]
[1]; [3]
  % Inhibition: 5.07%
[2]; concentration screened 10 uM
  % Inhibition: 4.87%

## CCCCc1ccc2[nH]c(CCCC[n+]3ccc4ccccc4c3)cc2c1 [Compound 529]
[1]; [3]
  % Inhibition: 15.50%
[2]; concentration screened 10 uM
  % Inhibition: 10.15%

## CC(C)c1ccc2[nH]c(CCCCCCC[n+]3ccc4ccccc4c3)cc2c1 [Compound 538]
[1]; [3]
  % Inhibition: 40.95%
[2]; concentration screened 10 uM
  % Inhibition: 43.05%

## O=C(c1ccccc1)c1ccc2[nH]c(CCCCC[n+]3ccc4ccccc4c3)cc2c1 [Compound 572]
[1]; [3]
  % Inhibition: 31.02%
[2]; concentration screened 100 uM
  % Inhibition: 96.57%
